# Measurements taken from ChEMBL document CHEMBL5257124, “Design, synthesis and biological evaluation of novel indole-piperazine derivatives as antibacterial agents” (Bioorg Med Chem Lett, 2023).
# Activity calls are given as the source filed them. The calls are words filed in the database; no cut-off is given here.
# What was measured:
# Escherichia coli [1] = assay: Bactericidal activity against Escherichia coli ATCC 25922 assessed as reduction in bacterial growth; assay type: functional
# BV-2 = assay: Cytotoxicity against mouse BV-2 cells assessed as inhibition of cell growth at 20 to 50 microg/ml measured for 24 hrs by MTT assay; assay type: toxicity, cell-based; conditions: bv-2, 24 h, dose 20-50 µg/ml
# Bacillus cereus = assay: Antibacterial activity against Bacillus cereus assessed as reduction in bacterial growth; assay type: functional
# Pseudomonas syringae = assay: Antibacterial activity against Pseudomonas syringae pv. actinidiae assessed as bacterial growth inhibition; assay type: functional
# Escherichia coli [2] = assay: Antibacterial activity against Escherichia coli ATCC 25922 assessed as reduction in bacterial growth; assay type: functional
# Staphylococcus aureus [3] = assay: Antibacterial activity against methicillin resistant Staphylococcus aureus assessed as reduction in bacterial growth at 8 microg/ml measured for 2 hrs; assay type: functional; conditions: dose 8 µg/ml
# Staphylococcus aureus [4] = assay: Bactericidal activity against methicillin resistant Staphylococcus aureus ATCC 33591 assessed as reduction in bacterial growth; assay type: functional
# Staphylococcus aureus [5] = assay: Bactericidal activity against Staphylococcus aureus ATCC 25923 assessed as reduction in bacterial growth; assay type: functional
# Staphylococcus aureus [6] = assay: Antibacterial activity against Staphylococcus aureus ATCC 25923 assessed as reduction in bacterial growth; assay type: functional
# Staphylococcus aureus [7] = assay: Antibacterial activity against methicillin resistant Staphylococcus aureus ATCC 33591 assessed as reduction in bacterial growth; assay type: functional
# Ralstonia solanacearum = assay: Antibacterial activity against Ralstonia solanacearum assessed as bacterial growth inhibition; assay type: functional
# Staphylococcus aureus [8] = assay: Antibacterial activity against methicillin resistant Staphylococcus aureus assessed as reduction in bacterial growth at 8 times MIC measured at 24 hrs by time kill assay; assay type: functional, organism-based
# Staphylococcus aureus [9] = assay: Antibacterial activity against methicillin resistant Staphylococcus aureus assessed as reduction in bacterial growth at 16 microg/ml measured for 2 hrs; assay type: functional; conditions: dose 16 µg/ml
# PC-12 = assay: Cytotoxicity against rat PC12 cells assessed as inhibition of cell growth at 20 to 50 microg/ml measured for 24 hrs by MTT assay; assay type: toxicity, cell-based; conditions: pc-12, 24 h, dose 20-50 µg/ml
# Histone deacetylase 1 = Histone deacetylase 1 (Homo sapiens, UniProt Q13547); assay: Inhibition of full length C-terminal His/FLAG tagged human recombinant HDAC1 (1 to 482 residues) expressed in baculovirus-infected Sf9 cells using RHK-K(Ac)-AMC as substrate incubated for 2 hrs
# Histone deacetylase 1, sequence (Q13547 whole entry, the tested form may be a part): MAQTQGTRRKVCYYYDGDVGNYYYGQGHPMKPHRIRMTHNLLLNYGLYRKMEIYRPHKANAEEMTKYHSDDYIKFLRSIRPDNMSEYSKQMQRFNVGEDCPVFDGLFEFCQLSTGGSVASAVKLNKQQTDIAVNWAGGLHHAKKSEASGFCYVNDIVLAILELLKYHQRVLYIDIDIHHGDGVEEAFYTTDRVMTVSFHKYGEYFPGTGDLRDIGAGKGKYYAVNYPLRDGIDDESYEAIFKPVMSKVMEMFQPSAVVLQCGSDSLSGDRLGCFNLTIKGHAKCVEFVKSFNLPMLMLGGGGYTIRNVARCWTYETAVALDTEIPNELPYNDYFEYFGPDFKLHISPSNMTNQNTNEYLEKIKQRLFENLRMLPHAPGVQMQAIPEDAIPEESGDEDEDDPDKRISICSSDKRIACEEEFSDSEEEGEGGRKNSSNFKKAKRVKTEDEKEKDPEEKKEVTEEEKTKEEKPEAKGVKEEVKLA
# Staphylococcus aureus [10] = assay: Antibacterial activity against methicillin resistant Staphylococcus aureus assessed as reduction in bacterial growth at 1 times MIC by time kill assay; assay type: functional, organism-based
# Staphylococcus aureus [11] = assay: Antibacterial activity against methicillin resistant Staphylococcus aureus assessed as reduction in bacterial growth at 8 times MIC measured at 12 hrs by time kill assay; assay type: functional; design: scale not given: the % may be the effect or the level left
# Staphylococcus aureus [12] = assay: Antibacterial activity against methicillin resistant Staphylococcus aureus assessed as reduction in bacterial growth at 1 microg/ml measured for 2 hrs; assay type: functional; conditions: dose 1 µg/ml
# Staphylococcus aureus [13] = assay: Antibacterial activity against methicillin resistant Staphylococcus aureus assessed as reduction in bacterial growth at 2 microg/ml measured for 2 hrs; assay type: functional; conditions: dose 2 µg/ml
# Staphylococcus aureus [14] = assay: Antibacterial activity against methicillin resistant Staphylococcus aureus assessed as reduction in bacterial growth at 0.5 microg/ml measured for 2 hrs; assay type: functional; conditions: dose 0.5 µg/ml
# Staphylococcus aureus [15] = assay: Drug resistance against Staphylococcus aureus assessed as fold increase in MIC measured after 19 passaging for 19 days; assay type: functional; conditions: time 19 day
# Staphylococcus aureus [16] = assay: Antibacterial activity against methicillin resistant Staphylococcus aureus assessed as reduction in bacterial growth at 2 times MIC measured at 24 hrs by time kill assay; assay type: functional; design: scale not given: the % may be the effect or the level left
# Staphylococcus aureus [17] = assay: Antibacterial activity against methicillin resistant Staphylococcus aureus assessed as reduction in bacterial growth at 4 times MIC measured at 24 hrs by time kill assay; assay type: functional; design: scale not given: the % may be the effect or the level left
Compound,MBC (Escherichia coli [1]),MIC (Bacillus cereus),MIC (Pseudomonas syringae),MIC (Escherichia coli [2]),MBC (Staphylococcus aureus [4]),MIC (Staphylococcus aureus [6]),MIC (Staphylococcus aureus [7]),MIC (Ralstonia solanacearum),also measured
FC(F)(F)c1ccc(CN2CCN(Cc3c[nH]c4ccc(Cl)cc34)CC2)c(N2CCCC2)c1,32 µg/mL,4 µg/mL,8 µg/mL,16 µg/mL,8 µg/mL,4 µg/mL,4 µg/mL,8 µg/mL,Activity (BV-2): Non-Toxic; PAE (Staphylococcus aureus [3]): 0.36 h; MBC (Staphylococcus aureus [5]): 8 µg/mL; Activity (Staphylococcus aureus [8]): Active; PAE (Staphylococcus aureus [9]): 0.61 h; Activity (PC-12): Non-Toxic
Cn1cc(CN2CCN(Cc3ccc(C(F)(F)F)cc3N3CCCC3)CC2)c2cc([N+](=O)[O-])ccc21,–,128 µg/mL,128 µg/mL,128 µg/mL,–,128 µg/mL,128 µg/mL,128 µg/mL,–
Cn1cc(CN2CCN(Cc3ccc(C(F)(F)F)cc3N3CCCC3)CC2)c2cc(Br)ccc21,–,16 µg/mL,16 µg/mL,32 µg/mL,–,16 µg/mL,8 µg/mL,16 µg/mL,–
O=C1CN(Cc2ccc(C(=O)NO)cc2)C(=O)[C@H](Cc2c[nH]c3ccccc23)N1,–,–,–,–,–,–,–,–,IC50 (Histone deacetylase 1): 405 nM
O=C(O)c1cn(C2CC2)c2cc(N3CCNCC3)c(F)cc2c1=O [CIPROFLOXACIN],1 µg/mL,–,–,–,2 µg/mL,0.5 µg/mL,0.5 µg/mL,–,Activity (Staphylococcus aureus [10]): Active; Activity (Staphylococcus aureus [11]): 99.9%; PAE (Staphylococcus aureus [12]): 1.22 h; Activity (Staphylococcus aureus [8]): Active; PAE (Staphylococcus aureus [13]): 1.58 h
Cn1cc(CN2CCN(Cc3ccc(Cl)cc3Cl)CC2)c2cc(Br)ccc21,16 µg/mL,8 µg/mL,16 µg/mL,16 µg/mL,8 µg/mL,8 µg/mL,4 µg/mL,32 µg/mL,MBC (Staphylococcus aureus [5]): 16 µg/mL
Clc1ccc(CN2CCN(Cc3c[nH]c4ccc(Cl)cc34)CC2)c(Cl)c1,–,8 µg/mL,32 µg/mL,16 µg/mL,–,8 µg/mL,8 µg/mL,16 µg/mL,–
N#Cc1ccc2[nH]cc(CN3CCN(Cc4ccc(C(F)(F)F)cc4N4CCCC4)CC3)c2c1,–,16 µg/mL,128 µg/mL,128 µg/mL,–,16 µg/mL,16 µg/mL,128 µg/mL,–
N#Cc1ccc2[nH]cc(CN3CCN(Cc4ccc(Cl)cc4Cl)CC3)c2c1,–,8 µg/mL,32 µg/mL,32 µg/mL,–,16 µg/mL,8 µg/mL,32 µg/mL,–
O=[N+]([O-])c1ccc2[nH]cc(CN3CCN(Cc4ccc(C(F)(F)F)cc4N4CCCC4)CC3)c2c1,–,16 µg/mL,32 µg/mL,32 µg/mL,–,16 µg/mL,16 µg/mL,32 µg/mL,–
O=[N+]([O-])c1ccc2[nH]cc(CN3CCN(Cc4ccc(Cl)cc4Cl)CC3)c2c1,–,8 µg/mL,32 µg/mL,32 µg/mL,–,8 µg/mL,8 µg/mL,32 µg/mL,–
Fc1ccc2[nH]cc(CN3CCN(Cc4ccc(Cl)cc4Cl)CC3)c2c1,–,8 µg/mL,32 µg/mL,32 µg/mL,–,8 µg/mL,8 µg/mL,32 µg/mL,–
Cn1cc(CN2CCN(Cc3ccc(C(F)(F)F)cc3N3CCCC3)CC2)c2cc(C#N)ccc21,–,16 µg/mL,32 µg/mL,32 µg/mL,–,16 µg/mL,16 µg/mL,32 µg/mL,–
CO[C@H]1/C=C/O[C@@]2(C)Oc3c(C)c(O)c4c(O)c(c(/C=N/N5CCN(C)CC5)c(O)c4c3C2=O)NC(=O)/C(C)=C\C=C\[C@H](C)[C@H](O)[C@@H](C)[C@@H](O)[C@@H](C)[C@H](OC(C)=O)[C@@H]1C [RIFAMPIN],8 µg/mL,–,–,4 µg/mL,1 µg/mL,0.25 µg/mL,0.25 µg/mL,–,Activity (Staphylococcus aureus [10]): Active; Activity (Staphylococcus aureus [11]): 99.9%; MBC (Staphylococcus aureus [5]): 2 µg/mL; PAE (Staphylococcus aureus [12]): 3.45 h; Activity (Staphylococcus aureus [8]): Active; PAE (Staphylococcus aureus [14]): 1.8 h
Cn1cc(CN2CCN(Cc3ccc(Cl)cc3Cl)CC2)c2cc(Cl)ccc21,16 µg/mL,4 µg/mL,8 µg/mL,16 µg/mL,8 µg/mL,4 µg/mL,4 µg/mL,8 µg/mL,Activity (Staphylococcus aureus [10]): Active; Activity (BV-2): Non-Toxic; PAE (Staphylococcus aureus [3]): 1.6 h; fold change (FC) (Staphylococcus aureus [15]): <4; MBC (Staphylococcus aureus [5]): 8 µg/mL; Activity (Staphylococcus aureus [8]): Active; PAE (Staphylococcus aureus [9]): 2.21 h; Activity (PC-12): Non-Toxic
Cn1cc(CN2CCN(Cc3ccc(Cl)cc3Cl)CC2)c2cc(C#N)ccc21,–,8 µg/mL,32 µg/mL,32 µg/mL,–,8 µg/mL,8 µg/mL,16 µg/mL,–
COc1ccc2[nH]cc(CN3CCN(Cc4ccc(C(F)(F)F)cc4N4CCCC4)CC3)c2c1,–,16 µg/mL,16 µg/mL,32 µg/mL,–,16 µg/mL,8 µg/mL,16 µg/mL,–
Cn1cc(CN2CCN(Cc3ccc(Cl)cc3Cl)CC2)c2cc(F)ccc21,–,8 µg/mL,32 µg/mL,32 µg/mL,–,8 µg/mL,8 µg/mL,32 µg/mL,–
Cn1cc(CN2CCN(Cc3ccc(Cl)cc3Cl)CC2)c2cc([N+](=O)[O-])ccc21,–,8 µg/mL,64 µg/mL,64 µg/mL,–,8 µg/mL,8 µg/mL,32 µg/mL,–
FC(F)(F)c1ccc(CN2CCN(Cc3c[nH]c4ccc(Br)cc34)CC2)c(N2CCCC2)c1,32 µg/mL,8 µg/mL,32 µg/mL,32 µg/mL,16 µg/mL,8 µg/mL,8 µg/mL,32 µg/mL,MBC (Staphylococcus aureus [5]): 16 µg/mL
Cn1cc(CN2CCN(Cc3ccc(C(F)(F)F)cc3N3CCCC3)CC2)c2cc(F)ccc21,–,8 µg/mL,32 µg/mL,32 µg/mL,–,8 µg/mL,8 µg/mL,32 µg/mL,–
Cn1cc(CN2CCN(Cc3ccc(C(F)(F)F)cc3N3CCCC3)CC2)c2cc(Cl)ccc21,–,32 µg/mL,64 µg/mL,64 µg/mL,–,32 µg/mL,64 µg/mL,64 µg/mL,–
GENTAMICIN,4 µg/mL,8 µg/mL,8 µg/mL,4 µg/mL,> 128 µg/mL,4 µg/mL,> 128 µg/mL,16 µg/mL,MBC (Staphylococcus aureus [5]): 8 µg/mL
Clc1ccc(CN2CCN(Cc3c[nH]c4ccc(Br)cc34)CC2)c(Cl)c1,16 µg/mL,4 µg/mL,16 µg/mL,16 µg/mL,4 µg/mL,4 µg/mL,4 µg/mL,8 µg/mL,Activity (BV-2): Non-Toxic; Activity (Staphylococcus aureus [16]): 99.5%; PAE (Staphylococcus aureus [3]): 1.62 h; fold change (FC) (Staphylococcus aureus [15]): <4; MBC (Staphylococcus aureus [5]): 8 µg/mL; Activity (Staphylococcus aureus [17]): 99.9%; PAE (Staphylococcus aureus [9]): 2.91 h; Activity (PC-12): Non-Toxic
Fc1ccc2[nH]cc(CN3CCN(Cc4ccc(C(F)(F)F)cc4N4CCCC4)CC3)c2c1,–,8 µg/mL,128 µg/mL,128 µg/mL,–,16 µg/mL,8 µg/mL,128 µg/mL,–
